Key:
[1] = biological target: T1, Indoleamine 2,3-dioxygenase 1 (Homo sapiens, UniProt P14902); assay: Inhibition of recombinant human IDO1
[2] = biological target: T1, Indoleamine 2,3-dioxygenase 1; assay: Inhibition of IDO1 in human HeLa cells; format: cell-based

T1 sequence (P14902 whole entry): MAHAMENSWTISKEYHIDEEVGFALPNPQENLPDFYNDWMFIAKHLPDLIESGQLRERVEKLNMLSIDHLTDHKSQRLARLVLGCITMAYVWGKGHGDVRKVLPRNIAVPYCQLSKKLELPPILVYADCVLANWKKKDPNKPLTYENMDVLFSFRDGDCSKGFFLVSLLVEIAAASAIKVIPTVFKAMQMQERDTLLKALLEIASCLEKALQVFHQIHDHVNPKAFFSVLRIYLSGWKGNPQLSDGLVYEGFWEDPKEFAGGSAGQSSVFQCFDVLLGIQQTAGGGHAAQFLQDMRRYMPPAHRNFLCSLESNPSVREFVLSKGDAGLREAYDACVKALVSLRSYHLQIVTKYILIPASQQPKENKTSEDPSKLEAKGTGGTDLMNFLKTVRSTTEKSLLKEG

| Structure (SMILES) | IC50 [1] [nM] | IC50 [2] [nM] |
| --- | --- | --- |
| CCCNC(=O)Nc1nonc1/C(=N/O)Nc1ccc(F)c(Br)c1 | 127 |  |
| Cc1ccc(NC(=O)Nc2cc(/C(=N/O)Nc3ccc(C)cc3)ccc2N(CC(C)C)CC(C)C)cc1 | 1560 | 1340 |
| CCCCNC(=O)Nc1cc(/C(=N/O)Nc2ccc(F)c(Br)c2)ccc1N(CC(C)C)CC(C)C | > 3000 | 3110 |
| CCCNC(=O)Nc1cc(/C(=N/O)Nc2ccc(F)c(Br)c2)ccc1N(CC(C)C)CC(C)C | 2900 | 2610 |
| Cc1ccc(N/C(=N\O)c2ccc(N(CC(C)C)CC(C)C)c(NC(=O)Nc3cncnc3)c2)cc1 | 2320 | 440 |
| CC(C)CN(CC(C)C)c1ccc(/C(=N/O)Nc2ccc(F)c(Br)c2)cc1NC(=O)NC1CCCCC1 | > 3000 | 1340 |

Further lines, results first:

| IC50 [1] [nM] | IC50 [2] [nM] | Structure (SMILES) |
| --- | --- | --- |
| 1490 | 440 | CC(C)CN(CC(C)C)c1ccc(/C(=N/O)Nc2ccc(F)c(Br)c2)cc1NC(=O)Nc1ccc(Cl)cc1 |
| 2300 | 760 | Cc1ccc(NC(=O)Nc2cc(/C(=N/O)Nc3ccc(F)c(Br)c3)ccc2N(CC(C)C)CC(C)C)cc1 |
| > 3000 | 2090 | CC(C)CN(CC(C)C)c1ccc(/C(=N/O)Nc2ccc(F)c(Br)c2)cc1NC(=O)Nc1ccc(C(F)(F)F)cc1 |
| > 3000 | 860 | CC(C)CN(CC(C)C)c1ccc(/C(=N/O)Nc2ccc(F)c(Br)c2)cc1NC(=O)Nc1cncnc1 |
